Data set [1] is described as follows: Inhibition of full length human recombinant Endoplasmic reticulum alpha-glucosidase 1 expressed in Escherichia coli using trisaccharide as substrate incubated for 60 mins.
A short description of data set [2]: Inhibition of full length N-terminal his6-tagged mouse recombinant Endoplasmic reticulum alpha-glucosidase 2 expressed in DH10 Escherichia coli using Fluorogenic 1,4-methyl-lumbelliferon as substrate preincubated for 60 mins followed by substrate addition and measured after 30 mins.
A short description of data set [3]: Cytotoxicity against African green monkey Vero cells assessed as reduction in cell viability incubated for 3 to 5 days by Cell titer-glo luminescent assay. It is filed as toxicity, cell-based. To be noted: chlorocebus sabaeus, time 3-5 day. (ATP-based viability assays read luminescence as a measure of living cells.)
The subject of data set [4] is SARS-CoV-2. Put plainly: Antiviral activity against SARS-CoV-2 England/2/2022 assessed as reduction in viral infection. Particulars: Severe acute respiratory syndrome coronavirus 2, England/2/2022. It is filed as functional, organism-based.
Data set [5] deals with Dengue virus type 2. Put plainly: Antiviral activity against DENV New Guinea C strain infected in African green monkey Vero cells assessed as reduction in viral infection measured after 5 days by plaque assay. To be noted: 120 h.
A short description of data set [6]: Selectivity index, ratio of CC50 for cytotoxicity against African green monkey Vero cells to IC50 for antiviral activity against DENV New Guinea C strain infected in African green monkey Vero cells. In kind it is toxicity, cell-based. To be noted: read-out: Ratio CC50/IC50.

Drawing on ChEMBL document CHEMBL5150012, “N-Substituted Valiolamine Derivatives as Potent Inhibitors of Endoplasmic Reticulum α-Glucosidases I and II with Antiviral Activity” (J Med Chem, 2021), this text covers IC50, CC50 and selectivity ratio for twelve compounds.

pIC50: −log10 of the molar value. Where only a bound is given, the exact number is not on record here.

By pIC50 is commonly meant −log10 of the IC50, conventionally taken in molar units. The term CC50 denotes the concentration at which the toxic effect on the cells reaches its halfway point. As to `O=[N+]([O-])c1cc(-c2ncccn2)ccc1NCCCCCCN[C@H]1C[C@](O)(CO)[C@@H](O)[C@H](O)[C@H]1O`, the pIC50 was 6.19 in data set [1], 8.96 in data set [2], 4.15 in data set [4] and 3.98 in data set [5]. Besides, the CC50 in data set [3] was determined as 762 µM.

With `CCCCN[C@H]1C[C@](O)(CO)[C@@H](O)[C@H](O)[C@H]1O`, the pIC50 is 4.53 in data set [1] and 3.80 in data set [5]. Also, in data set [3], the CC50 is over 1000 µM.

Turning to `CCCCN1C[C@H](O)[C@@H](O)[C@H](O)[C@H]1CO`, the pIC50 in data set [4] was 4.37.

Take `[N-]=[N+]=Nc1ccc(NCCCCCCN[C@H]2C[C@](O)(CO)[C@@H](O)[C@H](O)[C@H]2O)c([N+](=O)[O-])c1`: the pIC50 in data set [1] was 6.14; in data set [2], 7.47; in data set [4] it was 4.91; in data set [5] it was 5.86. Moreover, in data set [3], the CC50 was 122 µM. The selectivity ratio in data set [6] turned out to be 88.

For `O=[N+]([O-])c1cc(-n2nccn2)ccc1NCCCCCCN[C@H]1C[C@](O)(CO)[C@@H](O)[C@H](O)[C@H]1O`, the negative-log IC50 (pIC50) in data set [1] is 7.32; in data set [2], over 9.00; in data set [4] it was under 4.00; in data set [5], 4.74. The CC50 in data set [3] was determined as 126 µM. The selectivity ratio in data set [6] was determined as 6.9.

`N[C@H]1C[C@](O)(CO)[C@@H](O)[C@H](O)[C@H]1O` [VALIOLAMINE]: the pIC50 in data set [1] is 4.06; in data set [2] it was under 4.00; in data set [4], under 3.00; in data set [5] it was under 3.00. The CC50 in data set [3] was 831 µM.

Consider `[N-]=[N+]=Nc1ccc(NCCCCN[C@H]2C[C@](O)(CO)[C@@H](O)[C@H](O)[C@H]2O)c([N+](=O)[O-])c1`, for which the pIC50 in data set [1] is 5.62; in data set [2] it was 6.00; in data set [4], 5.02; in data set [5] it was 4.21. In data set [3], the CC50 was determined as 1020 µM.

Consider `[N-]=[N+]=Nc1ccc(NCCOC(=O)NCCN[C@H]2C[C@](O)(CO)[C@@H](O)[C@H](O)[C@H]2O)c([N+](=O)[O-])c1`, for which the pIC50 was 5.95 in data set [1], 4.27 in data set [4] and under 3.00 in data set [5]. In addition, the CC50 in data set [3] is over 1000 µM.

On to `O=[N+]([O-])c1cc(-n2ccnn2)ccc1NCCCCCCN[C@H]1C[C@](O)(CO)[C@@H](O)[C@H](O)[C@H]1O`, for which the pIC50 is 5.90 in data set [1], 7.81 in data set [2], 3.53 in data set [4] and 4.87 in data set [5]. Also, the CC50 in data set [3] worked out at 1380 µM. Moreover, the selectivity ratio in data set [6] came to 102.

As for `COCCCCCCCCCN[C@H]1C[C@](O)(CO)[C@@H](O)[C@H](O)[C@H]1O`, the pIC50 in data set [1] was 4.97; in data set [2], 6.31; in data set [4] it was 3.57; in data set [5], 4.12. The CC50 in data set [3] stood at 1070 µM.

`O=[N+]([O-])c1cc(-n2cnnn2)ccc1NCCCCCCN[C@H]1C[C@](O)(CO)[C@@H](O)[C@H](O)[C@H]1O`: the pIC50 was 4.49 in data set [1], 5.85 in data set [2] and under 3.00 in data set [5]. The CC50 in data set [3] is 1360 µM.

On to `[N-]=[N+]=Nc1ccc(NCCOCCN[C@H]2C[C@](O)(CO)[C@@H](O)[C@H](O)[C@H]2O)c([N+](=O)[O-])c1`, for which the values for the pIC50 in data set [1], in data set [2] and in data set [5] were 5.44, 4.43 and 3.53, respectively. In addition, the CC50 in data set [3] was determined as 1750 µM.
